Source: ChEMBL document CHEMBL1201862, “PubChem BioAssay data set” (2004)
Calls of active or inactive are those of the source.

Columns and labels:
Cytochrome P450 2C9 = Cytochrome P450 2C9 (Homo sapiens, UniProt P11712)
Cytochrome P450 3A4 = Cytochrome P450 3A4 (Homo sapiens, UniProt P08684);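 also: CYP3A4 tested as one member of a cytochrome P450 panel screen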
[1] = target: T1, Corticotropin-releasing factor receptor 2/Corticotropin-releasing factor-binding protein (Homo sapiens, UniProt P24387+Q13324); experiment: Dose Response confirmation of uHTS hits for small molecule antagonists of the CRF-binding protein and CRF-R2 receptor complex.; assay type: functional; conditions: read-out: IC50_Mean
T1 sequence (Q13324 whole entry): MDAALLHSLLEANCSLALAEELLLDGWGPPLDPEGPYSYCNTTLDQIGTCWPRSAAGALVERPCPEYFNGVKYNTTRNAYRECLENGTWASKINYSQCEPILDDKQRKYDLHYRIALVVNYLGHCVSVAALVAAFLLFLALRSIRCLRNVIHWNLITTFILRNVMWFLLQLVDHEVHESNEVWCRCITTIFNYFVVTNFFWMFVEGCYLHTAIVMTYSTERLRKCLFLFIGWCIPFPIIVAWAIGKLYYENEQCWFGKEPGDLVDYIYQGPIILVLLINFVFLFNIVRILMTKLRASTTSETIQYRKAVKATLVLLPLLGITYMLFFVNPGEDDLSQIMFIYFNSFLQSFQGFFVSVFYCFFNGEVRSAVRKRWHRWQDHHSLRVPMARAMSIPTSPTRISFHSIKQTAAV
T1 sequence (P24387 whole entry): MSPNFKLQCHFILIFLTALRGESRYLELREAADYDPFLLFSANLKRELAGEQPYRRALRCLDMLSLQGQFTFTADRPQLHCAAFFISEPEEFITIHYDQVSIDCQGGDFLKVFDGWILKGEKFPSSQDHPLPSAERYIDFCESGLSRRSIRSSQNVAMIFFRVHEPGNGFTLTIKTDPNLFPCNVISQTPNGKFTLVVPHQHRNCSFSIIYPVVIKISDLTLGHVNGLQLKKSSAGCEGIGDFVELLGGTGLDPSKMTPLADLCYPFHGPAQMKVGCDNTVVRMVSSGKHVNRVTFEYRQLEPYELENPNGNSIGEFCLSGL

[2] = target: T1, Corticotropin-releasing factor receptor 2/Corticotropin-releasing factor-binding protein; experiment: activators of CRF receptor 2 with binding protein – uHTS hits, confirmation (AID 602473); assay type: functional; conditions: read-out: EC50_Mean
Cytochrome P450 2C19 = Cytochrome P450 2C19 (Homo sapiens, UniProt P33261); experiment: Cytochrome panel assay with activity outcomes. Panel member name: p450-cyp2c19 Compounds with AC50 equal or less than 10 uM are considered active; assay type: functional
[3] = P. falciparum Dd2 growth inhibitors, dose response, SYBR Green, cherry-picked samples (AID 1159567); assay type: functional, cell-based
[4] = tested on: Streptococcus sp. 'group A'; experiment: Streptococcus pyogenes SK(-)GAS viability under kanamycin – luminescence, BacTiterGlo, confirmation, counter-screen for streptokinase expression inhibitor project, dose response (AID 1900); assay type: functional, organism-based
Streptokinase A = target: T2, Streptokinase A (Streptococcus pyogenes serotype M1, UniProt P10520); experiment: viability-normalized secreted streptokinase activity reduction – plasminogen activation absorbance, OD405, dose response (AID 1914); assay type: functional, Streptococcus pyogenes M1 GAS;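 also: secreted streptokinase activity via plasminogen activation per viability signal from cell pellet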
T2 sequence (P10520 whole entry): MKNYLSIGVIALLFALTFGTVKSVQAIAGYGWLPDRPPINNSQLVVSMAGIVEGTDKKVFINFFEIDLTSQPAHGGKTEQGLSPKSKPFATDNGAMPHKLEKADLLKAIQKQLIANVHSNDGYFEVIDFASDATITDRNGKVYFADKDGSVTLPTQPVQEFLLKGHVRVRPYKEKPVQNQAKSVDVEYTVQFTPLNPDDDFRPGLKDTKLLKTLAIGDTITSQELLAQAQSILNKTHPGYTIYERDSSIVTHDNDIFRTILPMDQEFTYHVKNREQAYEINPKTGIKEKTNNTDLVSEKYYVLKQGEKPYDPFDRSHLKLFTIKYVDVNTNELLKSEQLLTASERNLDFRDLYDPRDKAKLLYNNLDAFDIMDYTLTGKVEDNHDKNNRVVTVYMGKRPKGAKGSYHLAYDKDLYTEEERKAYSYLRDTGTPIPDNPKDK

Streptococcus = experiment: GAS UMAA2166 growth inhibition – luminescence, BacTiterGlo, counter-screen for streptokinase expression inhibitor project, dose response (AID 1915); assay type: functional, organism-based;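 also: potency for reduction of bacterial viability or growth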
Cytochrome P450 1A2 = target: T3, Cytochrome P450 1A2 (Homo sapiens, UniProt P05177);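 also: PubChem cytochrome P450 panel assay, CYP1A2 panel member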
T3 sequence (P05177 whole entry): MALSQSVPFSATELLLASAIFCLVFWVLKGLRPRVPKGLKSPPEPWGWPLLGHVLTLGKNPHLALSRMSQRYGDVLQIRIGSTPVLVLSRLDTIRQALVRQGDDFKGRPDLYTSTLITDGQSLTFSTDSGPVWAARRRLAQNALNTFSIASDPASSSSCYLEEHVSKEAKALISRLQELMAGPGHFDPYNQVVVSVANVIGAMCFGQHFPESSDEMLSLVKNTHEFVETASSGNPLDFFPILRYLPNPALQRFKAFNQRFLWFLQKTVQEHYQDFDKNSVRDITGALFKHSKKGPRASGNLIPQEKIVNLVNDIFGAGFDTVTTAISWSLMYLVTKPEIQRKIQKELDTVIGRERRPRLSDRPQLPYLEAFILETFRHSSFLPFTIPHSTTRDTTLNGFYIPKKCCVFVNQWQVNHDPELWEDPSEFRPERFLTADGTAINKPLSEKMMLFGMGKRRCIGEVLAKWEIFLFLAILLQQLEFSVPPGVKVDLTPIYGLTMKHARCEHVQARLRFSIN

[5] = Luminescence Cell-Based Dose Response HTS to Identify Activators of Luciferase Translation or Activity in H4 […] Cells. [Related pubchem assays: 1829 (Project Summary), 1814 (Primary HTS)]; assay type: functional
H4 = experiment: Luminescence Cell-Based Dose Response HTS to Identify Activators of 5'UTR Stem-Loop Driven Prion Protein mRNA Translation in H4 Neuroglioblastoma Cells. [Related pubchem assays: 1829 (Project Summary), 1814 (Primary HTS)]; assay type: functional; conditions: Homo sapiens
[6] = Luminescence Cell-Based Dose Confirmation HTS to Identify Activators of 5'UTR Stem-Loop Driven Alpha-Synuclein mRNA Translation in H4 Neuroglioblastoma Cells. [Related pubchem assays: 1829 (Project Summary), 1814 (Primary HTS)]; assay type: functional
Cytochrome P450 2D6 = Cytochrome P450 2D6 (Homo sapiens, UniProt P10635);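 also: CYP2D6 member of a cytochrome P450 panel assay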
Cytochrome P450 2D6, sequence (P10635 whole entry): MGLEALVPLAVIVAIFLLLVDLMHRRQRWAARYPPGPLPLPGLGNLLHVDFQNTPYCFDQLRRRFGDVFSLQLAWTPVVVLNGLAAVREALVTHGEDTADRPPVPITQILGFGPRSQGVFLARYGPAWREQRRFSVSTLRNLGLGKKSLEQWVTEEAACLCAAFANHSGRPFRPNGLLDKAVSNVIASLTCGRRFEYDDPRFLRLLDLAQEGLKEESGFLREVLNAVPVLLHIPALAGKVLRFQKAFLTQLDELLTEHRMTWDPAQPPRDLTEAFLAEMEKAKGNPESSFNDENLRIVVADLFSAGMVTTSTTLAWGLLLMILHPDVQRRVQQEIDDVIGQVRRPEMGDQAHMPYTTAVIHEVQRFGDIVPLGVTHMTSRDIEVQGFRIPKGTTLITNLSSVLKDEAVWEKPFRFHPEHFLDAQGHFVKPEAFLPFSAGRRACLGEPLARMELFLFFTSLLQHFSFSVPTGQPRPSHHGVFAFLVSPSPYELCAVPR

Cytochrome P450 2C9, sequence (P11712 whole entry): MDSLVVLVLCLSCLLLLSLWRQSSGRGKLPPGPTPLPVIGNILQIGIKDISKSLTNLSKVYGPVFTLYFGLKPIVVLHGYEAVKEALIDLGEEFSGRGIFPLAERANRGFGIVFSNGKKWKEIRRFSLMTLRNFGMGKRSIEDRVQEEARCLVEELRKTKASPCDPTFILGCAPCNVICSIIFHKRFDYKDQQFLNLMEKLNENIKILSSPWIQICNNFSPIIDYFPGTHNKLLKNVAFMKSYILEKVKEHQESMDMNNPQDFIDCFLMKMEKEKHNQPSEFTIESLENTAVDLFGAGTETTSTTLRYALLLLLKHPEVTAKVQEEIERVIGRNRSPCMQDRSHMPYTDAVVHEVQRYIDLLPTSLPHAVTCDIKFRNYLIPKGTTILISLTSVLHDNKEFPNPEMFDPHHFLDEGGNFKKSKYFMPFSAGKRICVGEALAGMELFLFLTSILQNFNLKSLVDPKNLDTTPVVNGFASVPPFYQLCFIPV
Cytochrome P450 2C19, sequence (P33261 whole entry): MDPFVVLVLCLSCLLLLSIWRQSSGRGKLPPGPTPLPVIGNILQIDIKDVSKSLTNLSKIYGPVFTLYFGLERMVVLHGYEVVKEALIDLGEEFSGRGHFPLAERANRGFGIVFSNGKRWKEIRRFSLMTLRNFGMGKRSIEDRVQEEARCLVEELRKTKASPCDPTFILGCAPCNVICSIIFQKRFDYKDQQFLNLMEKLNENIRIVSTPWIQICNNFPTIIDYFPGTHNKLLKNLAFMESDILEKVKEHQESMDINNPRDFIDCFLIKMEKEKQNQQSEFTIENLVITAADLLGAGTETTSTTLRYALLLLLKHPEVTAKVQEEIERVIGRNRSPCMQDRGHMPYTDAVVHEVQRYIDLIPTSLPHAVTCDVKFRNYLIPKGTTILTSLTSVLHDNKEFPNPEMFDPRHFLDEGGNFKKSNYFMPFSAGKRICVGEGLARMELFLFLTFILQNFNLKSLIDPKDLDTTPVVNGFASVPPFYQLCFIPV
Cytochrome P450 3A4, sequence (P08684 whole entry): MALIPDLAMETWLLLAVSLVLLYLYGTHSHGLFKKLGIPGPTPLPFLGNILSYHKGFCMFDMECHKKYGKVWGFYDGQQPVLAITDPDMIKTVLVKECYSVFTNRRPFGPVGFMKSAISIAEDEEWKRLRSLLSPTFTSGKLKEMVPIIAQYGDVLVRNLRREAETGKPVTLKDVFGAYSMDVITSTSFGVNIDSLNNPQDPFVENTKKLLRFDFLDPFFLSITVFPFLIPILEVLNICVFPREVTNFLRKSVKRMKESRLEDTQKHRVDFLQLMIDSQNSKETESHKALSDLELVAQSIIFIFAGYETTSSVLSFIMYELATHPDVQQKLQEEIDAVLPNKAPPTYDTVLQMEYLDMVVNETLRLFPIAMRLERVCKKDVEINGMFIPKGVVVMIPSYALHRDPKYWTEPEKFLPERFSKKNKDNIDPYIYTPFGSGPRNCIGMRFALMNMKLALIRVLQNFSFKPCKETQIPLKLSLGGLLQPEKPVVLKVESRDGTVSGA

Row | Structure (SMILES) | AC50 (Cytochrome P450 3A4) | IC50 [1] | EC50 [2] | also measured
1 | COc1ccc(C2=C(C#N)C(=O)OC2)cc1 | 31.6 µM (inconclusive) |  |  | AC50 (Cytochrome P450 2C9): 39.8 µM (inconclusive)
2 | COc1ccccc1C1C(C(=O)c2sc(C)nc2C)=C(O)C(=O)N1CCN1CCOCC1 (centres undefined) |  | > 47.1 µM (inactive) | > 53 µM (inactive) | 
3 | COC(=O)C(C)Sc1nc(O)c2cnn(-c3ccc(C)cc3)c2n1 (centres undefined) | 14.1 µM (inconclusive) |  |  | AC50 (Cytochrome P450 2C9): 3.55 µM (inconclusive); AC50 (Cytochrome P450 2C19; read-out: AC50): 7.94 µM (inconclusive)
4 | COc1cccc(C(=O)Nc2ccc3c(c2)C(=O)N(C)C[C@@H](OC)[C@H](C)CN(CCc2ccccc2)[C@H](C)CO3)c1 |  |  |  | AC50 [3]: 4.35 µM (active)
5 | CCc1ccccc1NC(=O)NC(C)c1ccc2c(c1)OCO2 (centres undefined) |  | > 47.1 µM (inactive) | > 53 µM (inactive) | EC50 [4]: > 150 µM (not active); EC50 (Streptokinase A): > 150 µM (not active); EC50 (Streptococcus): > 150 µM (not active)
6 | CN1c2ccc(C#Cc3cccnc3)cc2[C@H]2[C@H](CCN2C(=O)C2CCCC2)[C@H]1CO |  |  |  | AC50 [3]: 4 µM (active)
7 | CO[C@@H]1CN(C)C(=O)c2cc(NC(=O)NC3CCCCC3)ccc2OC[C@@H](C)N(CCc2ccccc2)C[C@H]1C |  |  |  | AC50 [3]: 5.84 µM (active)
8 | CS(=O)(=O)Nc1nc2n(n1)C(c1ccccc1)CC(c1ccccc1)N2 (centres undefined) |  | > 47.1 µM (inactive) | > 53 µM (inactive) | 
9 | CC[C@H]1C2=C3C(CC[C@H]4C(OC)OC[C@](C)([C@@H]34)N(C(=O)OC(C)(C)C)C2)C(CO)C1CO (some centres undefined) | 10 µM (inconclusive) |  |  | AC50 (Cytochrome P450 1A2): 12.6 µM (inconclusive); AC50 (Cytochrome P450 2C9): 25.1 µM (inconclusive); AC50 (Cytochrome P450 2C19): inconclusive
10 | COc1ccc(S(=O)(=O)N2CCCC(C(=O)NCc3ccncc3)C2)cc1 (centres undefined) |  | > 47.1 µM (inactive) | > 53 µM (inactive) | 
11 | Nc1ccc(N=Nc2ccccc2)cc1[N+](=O)[O-] |  | > 47.1 µM (inactive) | > 53 µM (inactive) | 
12 | COc1cccc(/C(C)=N/NS(=O)(=O)c2ccc(Cl)cc2)c1 |  | > 47.1 µM (inactive) | > 53 µM (inactive) | 
13 | COc1cc(CN2CC3(CCN(C(=O)c4cccnc4)CC3)c3c([nH]c4cc(OC)ccc34)[C@@H]2CO)cc(OC)c1 |  |  |  | AC50 [3]: 5.84 µM (active)
14 | Cn1c(=O)n(Cc2ccccc2Cl)c2ccccc21 |  | > 47.1 µM (inactive) | > 53 µM (inactive) | 
15 | O=c1c2ccccc2nc2n1CC/C2=C\c1ccccc1[N+](=O)[O-] | 10 µM (inconclusive) |  |  | AC50 (Cytochrome P450 2C19; read-out: AC50): 3.98 µM (inconclusive)
16 | O=C(O)c1cc(S(=O)(=O)N2CCCCC2)ccc1F | 1.26 µM (inconclusive) |  |  | 
17 | O=C(O)c1ccccc1-c1ccccc1C(=O)Nc1ccccc1 | 28.2 µM (inconclusive) |  |  | AC50 (Cytochrome P450 2C9): 35.5 µM (inconclusive)
18 | CSc1ncc(Cl)c(C(=O)Nc2ccc(S(=O)(=O)N3CCOCC3)cc2)n1 |  | > 47.1 µM (inactive) | > 53 µM (inactive) | 
19 | CCOC(=O)c1cc(=O)cc(C(=O)OCC)o1 |  | > 47.1 µM (inactive) | > 53 µM (inactive) | 

Row | Structure (SMILES) | AC50 (Cytochrome P450 3A4) | IC50 [1] | EC50 [2] | also measured
20 | Cc1cccc(C)c1OC[C@@H](N)C(C)C | 20 µM (inconclusive) |  |  | 
21 | COc1ccc(CN2CC3(CN(C(C)=O)C3)c3c([nH]c4cc(OC)ccc34)[C@@H]2CO)cc1 |  |  |  | AC50 [3]: 9.9 µM (active)
22 | CCCP(=O)(CC(=O)N(CC)CC)c1ccccc1 (centres undefined) |  | > 47.1 µM (inactive) | > 53 µM (inactive) | 
23 | Cc1nc2cnc(N3CCNCC3)nc2n(-c2ccccc2)c1=O | 31.6 µM (inconclusive) |  |  | 
24 | N#Cc1ccc(-c2ccc([C@@H]3[C@@H](CO)N4C(=O)CN(C(=O)C5CCC5)C[C@@H]34)cc2)cc1 |  |  |  | AC50 [3]: 5.38 µM (active)
25 | Cc1cc(-c2cccc([N+](=O)[O-])c2)nc2ccc3ccccc3c12 | 3.16 µM (inconclusive) |  |  | AC50 (Cytochrome P450 2C19; read-out: AC50): 20 µM (inconclusive)
26 | CCCn1c(=N)c(S(=O)(=O)c2ccccc2)cc2c(=O)n3ccccc3nc21 |  | > 47.1 µM (inactive) | > 53 µM (inactive) | 
27 | OC[C@H]1CC[C@@H]2O[C@H](CCc3ccc(C#CCc4ccccc4)cc3)[C@@H](n3cc(-c4ccccc4)nn3)C[C@@H]2O1 |  |  |  | AC50 [3]: 6.17 µM (active)
28 | O=C(CSc1nc(-c2ccc(F)cc2)cs1)N1CCOCC1 |  |  |  | EC50 [5]: 7.79 µM (active); EC50 (H4): 14.3 µM (active); EC50 [6]: 10.1 µM (active)
29 | CCc1ccc(N2CC(C)Cn3c2nc2c3c(=O)n(CCN3CCOCC3)c(=O)n2C)cc1 (centres undefined) | 39.8 µM (inconclusive) |  |  | AC50 (Cytochrome P450 2C9): 0.178 µM (inconclusive)
30 | Cc1ccnc(NC(=S)NC(=O)/C=C/c2ccco2)c1 |  |  |  | EC50 [5]: 9.64 µM (active); EC50 (H4): > 120 µM (not active); EC50 [6]: 0.458 µM (active)
31 | O=c1cc(CN2CCN(Cc3ccccc3)CC2)c2cc(O)ccc2o1 |  | > 47.1 µM (inactive) | > 53 µM (inactive) | 
32 | CC1=C(C(=O)OCc2ccccc2)C(c2ccc3ccccc3c2)NC(=O)N1CCCCCC(=O)O (centres undefined) | 10 µM (inconclusive) |  |  | AC50 (Cytochrome P450 1A2): 20 µM (inconclusive); AC50 (Cytochrome P450 2D6): 39.8 µM (inconclusive); AC50 (Cytochrome P450 2C19; read-out: AC50): 39.8 µM (inconclusive)
33 | Cc1ccc(C)c(NC(=S)Nc2ncccc2C)c1 |  | > 47.1 µM (inactive) | > 53 µM (inactive) | 
34 | CS(=O)(=O)c1ccccc1COC(=O)Nc1ccc(Cl)cc1 | 12.6 µM (inconclusive) |  |  | AC50 (Cytochrome P450 2D6): 10 µM (inconclusive)
35 | C/C(CCN1CCc2nc(-c3ccccc3)c(-c3ccccc3)cc2C1)=N\OC[C@@H](C)[C@H](OCc1ccccc1)C(C)C | 3.98 µM (inconclusive) |  |  | 
36 | O=[N+]([O-])/C(C(Cl)=C(Cl)Cl)=C(/NC1CC1)Sc1ccccc1 |  | > 47.1 µM (inactive) | > 53 µM (inactive) | 
37 | CC1CCc2c(sc3nc(CSc4n[nH]c(N)n4)nc(O)c23)C1 (centres undefined) |  |  |  | EC50 [5]: 27.2 µM (active); EC50 (H4): 13.2 µM (active); EC50 [6]: 15.5 µM (active)
